Results reported in US20060069132A1, “Azolecarboxamide herbicides” (priority 2004, published 2006).

How the values were obtained:
[1] = system: giant foxtail; test: Test A pre-/postemergence herbicide test; format: in vivo, Setaria faberi
In short: (§1)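 Visual injury rating on a 0–100 scale (0 no effect, 100 complete control) versus untreated controls, about ten days after treatment in greenhouse. Pre: directed soil spray onto seeded sandy loam. Post: spray to runoff on plants 2–10 cm tall at one- to two-leaf stage.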

[2] = system: velvetleaf; test: Test B pre-/postemergence herbicide test; format: in vivo, Abutilon theophrasti; conditions: for Velvetleaf plant response rating: postemergence, visual rating, scale 0 (no effect) to 100 (complete control)
In short: (§2)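 Visual rating, 0 (no effect) to 100 (complete control), versus untreated controls after 13–15 d in greenhouse. Pre- and postemergence applications (postemergence plants 2–18 cm, 1–4 leaves); flooded paddy arm at 2-leaf stage. Compounds in non-phytotoxic solvent plus surfactant.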

[3] = system: Surinam grass; test: Test B pre-/postemergence herbicide test; format: in vivo, Urochloa decumbens; conditions: for Surinam Grass plant response rating: postemergence, visual rating, scale 0 (no effect) to 100 (complete control)
In short: as §2

[4] = system: blackgrass; test: Test B postemergence herbicide test; format: in vivo, Alopecurus myosuroides; conditions: postemergence, visual rating, scale 0 (no effect) to 100 (complete control)
In short: (§3)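 Formulated test chemicals went onto postemergence plants measuring 2 to 18 cm, at one to four leaves. For the paddy assay, species had reached two leaves. Scoring took place 13–15 days later by eye, relative to untreated plants, using 0 for no effect up to 100 for full control.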

[5] = system: ducksalad; test: Test B flooded paddy test; format: in vivo, Heteranthera limosa; conditions: 1000 g ai/ha, visual rating, scale 0 to 100 (0 no effect, 100 complete control), 13 to 15 days
In short: as §3

[6] = system: large crabgrass; test: Test A pre-/postemergence herbicide test; format: in vivo, Digitaria sanguinalis
In short: as §1

[7] = system: barnyardgrass; test: Test B pre-/postemergence herbicide test; format: in vivo, Echinochloa crus-galli; conditions: for Barnyardgrass plant response rating: postemergence, visual rating, scale 0 (no effect) to 100 (complete control)
In short: (§4)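 Plants compared with untreated controls 13–15 days post-treatment and given a visual 0–100 injury score. Applications: preemergence to seeds; postemergence at 1- to 4-leaf (2–18 cm); paddy species flooded, 2-leaf stage. Vehicle non-phytotoxic, surfactant included.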

[8] = system: cocklebur; test: Test B pre-/postemergence herbicide test; format: in vivo, Xanthium strumarium; conditions: for Cocklebur plant response rating: postemergence, visual rating, scale 0 (no effect) to 100 (complete control)
In short: as §4

[9] = system: barnyardgrass; test: Test A pre-/postemergence herbicide test; format: in vivo, Echinochloa crus-galli
In short: as §1

[10] = system: morningglory; test: Test B pre-/postemergence herbicide test; format: in vivo, Ipomoea coccinea; conditions: for Morningglory plant response rating: postemergence, visual rating, scale 0 (no effect) to 100 (complete control)
In short: as §4

[11] = system: wild oat; test: Test B postemergence herbicide test; format: in vivo, Avena fatua; conditions: postemergence, visual rating, scale 0 (no effect) to 100 (complete control)
In short: as §3

[12] = system: corn; test: Test B pre-/postemergence herbicide test; format: in vivo, Zea mays; conditions: for Corn plant response rating: postemergence, visual rating, scale 0 (no effect) to 100 (complete control)
In short: as §2

[13] = system: rice; test: Test B flooded paddy test; format: in vivo, Oryza sativa; conditions: 1000 g ai/ha, visual rating, scale 0 to 100 (0 no effect, 100 complete control), 13 to 15 days
In short: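 Read-out: visual comparison with controls, scored 0 to 100, where 100 means complete control and 0 no effect. Formulated chemicals were applied postemergence to plants 2–18 cm tall (1- to 4-leaf), or to flooded-paddy plants at the 2-leaf stage, then held 13 to 15 days under glass.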

[14] = system: morningglory; test: Test A pre-/postemergence herbicide test; format: in vivo, Ipomoea spp.
In short: as §1

[15] = system: pigweed; test: Test B pre-/postemergence herbicide test; format: in vivo, Amaranthus retroflexus; conditions: for Pigweed plant response rating: postemergence, visual rating, scale 0 (no effect) to 100 (complete control)
In short: as §2

[16] = system: barnyardgrass; test: Test B flooded paddy test; format: in vivo, Echinochloa crus-galli; conditions: 1000 g ai/ha, visual rating, scale 0 to 100 (0 no effect, 100 complete control), 13 to 15 days
In short: as §3

[17] = system: small flower umbrella sedge; test: Test B flooded paddy test; format: in vivo, Cyperus difformis; conditions: 1000 g ai/ha, visual rating, scale 0 to 100 (0 no effect, 100 complete control), 13 to 15 days
In short: as §3

[18] = system: large crabgrass; test: Test B pre-/postemergence herbicide test; format: in vivo, Digitaria sanguinalis; conditions: for Crabgrass, Large plant response rating: postemergence, visual rating, scale 0 (no effect) to 100 (complete control)
In short: as §2

[19] = system: giant foxtail; test: Test B pre-/postemergence herbicide test; format: in vivo, Setaria faberi; conditions: for Foxtail, Giant plant response rating: postemergence, visual rating, scale 0 (no effect) to 100 (complete control)
In short: as §2

[20] = system: velvetleaf; test: Test A pre-/postemergence herbicide test; format: in vivo, Abutilon theophrasti
In short: as §1

[21] = system: redroot pigweed; test: Test A pre-/postemergence herbicide test; format: in vivo, Amaranthus retroflexus
In short: as §1

[22] = system: lambsquarters; test: Test B pre-/postemergence herbicide test; format: in vivo, Chenopodium album; conditions: for Lambsquarters plant response rating: postemergence, visual rating, scale 0 (no effect) to 100 (complete control)
In short: as §2

[23] = system: wheat; test: Test B postemergence herbicide test; format: in vivo, Triticum aestivum; set-up: key to Wheat plant response rating: 0 = no effect, 100 = complete control; conditions: postemergence, visual rating, scale 0 (no effect) to 100 (complete control)
In short: as §3

[24] = Postemergence, 500 g ai/ha, 0 to 100 scale, 0 no effect, 100 complete control
[25] = Postemergence, 2000 g ai/ha, 0 to 100 scale, 0 no effect, 100 complete control
[26] = Preemergence, 2000 g ai/ha, visual rating, 0 to 100 scale (0 no effect, 100 complete control)
[27] = preemergence, 500 g ai/ha, visual injury, 0 to 100 scale (0 no effect, 100 complete control)
[28] = 125 g ai/ha, 0 = no effect, 100 = complete control, preemergence
[29] = 500 g ai/ha, visual rating 0-100, 0 no effect, 100 complete control, preemergence

## CC(=O)c1cccc(NC(=O)c2cn(C(C)C)nc2C)c1 [Compound 179]
[1]; [24]
  Foxtail, Giant plant response rating: 0
[1]; [25]
  Plant response rating, Foxtail, Giant: 10
[1]; [26]
  Foxtail, Giant plant response rating: 10
[1]; [27]
  Foxtail, Giant plant response rating: 0
[2]; [28]
  Velvetleaf plant response rating (0 to 100 scale): 0
[2]; [29]
  Plant response rating, Velvetleaf: 0
[2]; 125 g ai/ha
  Velvetleaf plant response rating: 0
[2]; 500 g ai/ha
  Velvetleaf plant response rating: 0
[3]; [28]
  Surinam Grass plant response rating (0 to 100 scale): 0
[3]; [29]
  Plant response rating, Surinam Grass: 0
[3]; 125 g ai/ha
  Surinam Grass plant response rating: 0
[3]; 500 g ai/ha
  Surinam Grass plant response rating: 0
[4]; 125 g ai/ha
  Blackgrass plant response rating: 0
[4]; 500 g ai/ha
  Blackgrass plant response rating: 0
[5]
  Ducksalad plant response rating: 0
[6]; [24]
  Crabgrass, Large plant response rating: 10
[6]; [25]
  Plant response rating, Crabgrass, Large: 10
[6]; [26]
  Crabgrass, Large plant response rating: 50
[6]; [27]
  Crabgrass, Large plant response rating: 0
[7]; [28]
  Barnyardgrass plant response rating (0 to 100 scale): 0
[7]; [29]
  Plant response rating, Barnyardgrass: 0
[7]; 125 g ai/ha
  Barnyardgrass plant response rating: 0
[7]; 500 g ai/ha
  Barnyardgrass plant response rating: 0
[8]; [28]
  Cocklebur plant response rating (0 to 100 scale): 0
[8]; [29]
  Plant response rating, Cocklebur: 0
[8]; 125 g ai/ha
  Cocklebur plant response rating: 0
[8]; 500 g ai/ha
  Cocklebur plant response rating: 0
[9]; [24]
  Barnyardgrass plant response rating: 5
[9]; [25]
  Plant response rating, Barnyardgrass: 10
[9]; [26]
  Barnyardgrass plant response rating: 40
[9]; [27]
  Barnyardgrass plant response rating: 0
[10]; [28]
  Morningglory plant response rating (0 to 100 scale): 0
[10]; [29]
  Plant response rating, Morningglory: 0
[10]; 125 g ai/ha
  Morningglory plant response rating: 0
[10]; 500 g ai/ha
  Morningglory plant response rating: 0
[11]; 125 g ai/ha
  Oat, Wild plant response rating: 0
[11]; 500 g ai/ha
  Oat, Wild plant response rating: 0
[12]; [28]
  Corn plant response rating (0 to 100 scale): 0
[12]; [29]
  Plant response rating, Corn: 0
[12]; 125 g ai/ha
  Corn plant response rating: 0
[12]; 500 g ai/ha
  Corn plant response rating: 0
[13]
  Rice plant response rating: 0
[14]; [24]
  Morningglory plant response rating: 10
[14]; [25]
  Plant response rating, Morningglory: 30
[14]; [26]
  Morningglory plant response rating: 5
[14]; [27]
  Morningglory plant response rating: 0
[15]; [28]
  Pigweed plant response rating (0 to 100 scale): 0
[15]; [29]
  Plant response rating, Pigweed: 0
[15]; 125 g ai/ha
  Pigweed plant response rating: 0
[15]; 500 g ai/ha
  Pigweed plant response rating: 0
[16]
  Barnyardgrass plant response rating: 0
[17]
  Sedge, Umbrella plant response rating: 0
[18]; [28]
  Crabgrass, Large plant response rating (0 to 100 scale): 0
[18]; [29]
  Plant response rating, Crabgrass, Large: 0
[18]; 125 g ai/ha
  Crabgrass, Large plant response rating: 0
[18]; 500 g ai/ha
  Crabgrass, Large plant response rating: 0
[19]; [28]
  Foxtail, Giant plant response rating (0 to 100 scale): 0
[19]; [29]
  Plant response rating, Foxtail, Giant: 0
[19]; 125 g ai/ha
  Foxtail, Giant plant response rating: 0
[19]; 500 g ai/ha
  Foxtail, Giant plant response rating: 0
[20]; [24]
  Velvetleaf plant response rating: 0
[20]; [25]
  Plant response rating, Velvetleaf: 5
[20]; [26]
  Velvetleaf plant response rating: 0
[20]; [27]
  Velvetleaf plant response rating: 0
[21]; [24]
  Pigweed plant response rating: 0
[21]; [25]
  Plant response rating, Pigweed: 10
[21]; [26]
  Pigweed plant response rating: 35
[21]; [27]
  Pigweed plant response rating: 0
[22]; [28]
  Lambsquarters plant response rating (0 to 100 scale): 0
[22]; [29]
  Plant response rating, Lambsquarters: 0
[22]; 125 g ai/ha
  Lambsquarters plant response rating: 0
[22]; 500 g ai/ha
  Lambsquarters plant response rating: 0
[23]; 125 g ai/ha
  Wheat plant response rating: 0
[23]; 500 g ai/ha
  Wheat plant response rating: 0
